Experimental data reported in publication PMC5706040, “Reclamation of Marine Chitinous Materials for the Production of α-Glucosidase Inhibitors via Microbial Conversion” (Marine Drugs, 2017).

Key:
Assay in all cases: absorbance at […] nm, p-nitrophenol release
[1] = target: T1, S. cerevisiae α-glucosidase; format: biochemical, Saccharomyces cerevisiae; conditions: pNPG substrate, 0.1 mol/L potassium phosphate pH 7, 37 °C, 20 min preincubation, enzyme 0.25 U/mL
T1 construct: gene MAL12; commercial yeast enzyme (Sigma Aldrich, Singapore)

[2] = target: T2, Rat intestinal α-glucosidase; format: biochemical; conditions: pNPG substrate, 0.1 mol/L potassium phosphate pH 7, 37 °C, 20 min preincubation, intestinal acetone powder preparation
T2 construct: gene Si; preparation from rat intestinal acetone powder (Sigma Aldrich)

Rice α-glucosidase = target: T3, Rice α-glucosidase; format: biochemical, Oryza sativa; conditions: pNPG substrate, 0.1 mol/L potassium phosphate pH 7, 37 °C, 20 min preincubation, enzyme 1.0 U/mL
T3 construct: gene Os06g0675700; commercial enzyme from rice, type 4 (Sigma Aldrich)

[3] = target: T4, B. stearothermophilus α-glucosidase; format: biochemical, Geobacillus stearothermophilus; conditions: pNPG substrate, 0.1 mol/L potassium phosphate pH 7, 37 °C, 20 min preincubation, enzyme 0.10 U/mL
T4 construct: gene exo-alpha-1; commercial enzyme (Sigma Aldrich, Singapore)

α-Glucosidase Inhibition / IC50 [1]: 1095 ± 93 µg/mL
Inhibition by Acarbose / IC50 [2]: 78 ± 3.2 µg/mL
Inhibition by Acarbose / IC50 (Rice α-glucosidase): 3.04 ± 0.82 µg/mL
Inhibition by Acarbose / IC50 [3]: 0.042 ± 0.003 µg/mL
Structure (SMILES): C[C@H]1O[C@H](O[C@H]2[C@H](O)[C@@H](O)[C@@H](O[C@H]3[C@H](O)[C@@H](O)C(O)O[C@@H]3CO)O[C@@H]2CO)[C@H](O)[C@@H](O)[C@@H]1N[C@H]1C=C(CO)[C@@H](O)[C@H](O)[C@H]1O (stereo partly shown) [acarbose]
